Experimental findings from publication PMC7669869, “AdipoR1/AdipoR2 dual agonist recovers nonalcoholic steatohepatitis and related fibrosis via endoplasmic reticulum-mitochondria axis” (Nature Communications, 2020) are described below.

Entries after “also recorded” stand apart in the source; their conditions may differ. Non-standard residues stand in square brackets, D forms with d. Residues, ends and D or L forms follow the SMILES beside them. Nva = CCC[C@H](N)C(=O)O

The subject of assay [1] is αSMA expression in LX2 cells. As to the kind of experiment: Western blotting for αSMA expression in LX2. It counts as cell-based, human. The conditions noted are these: LX2, 200 μM peptide, 48 h; western blot; in words. As for the experimental part: Hepatoma carcinoma cell line HepG2 and human hepatic activated stellate cell line LX2 used in this study were purchased from Type Culture Collection of the Chinese Academy of Sciences (Shanghai, China). Cells were cultured in Dulbecco’s modified Eagle’s medium (DMEM) with 10% fetal bovine serum (FBS), supplemented with 1% penicillin–streptomycin (ThermoFisher Scientific, USA) at 37 °C in a humidified atmosphere of 5% CO2. In PA (Sigma, USA) induced lipid accumulation cell model, HepG2 cells were seeded into a 6-well plate at 5E5 cells per well. 0.25 mM PA and/or 200 μM candidate peptides were co-incubated with cells for 24 h. Then Oil Red O staining was performed to evaluate the accumulation of lipid droplets. BSA (Sigma, USA) was used in this experiment as the negative control. […]
Total protein was isolated from cells or liver samples using RIPA lysis buffer (50.0 mM Tris-HCl (pH = 8.0), 150.0 mM NaCl, 0.02% NaN3, 0.1% SDS, 1% NP-40, 0.5% deoxysodium cholate, 1 mM EDTA, […]). The protein concentration was quantified with BCA kit (Pierce, ThermoFisher Scientific, USA). […] After incubation with the secondary antibody, proteins were detected by enhanced chemiluminescence (Glarity^TM Western ECL Substrate, Bio-Rad, USA) and the signals were recorded and quantified with Tanon-Image Software (Shanghai, China). […]

The test system of assay [2] is AdipoR1 and AdipoR2 on HepG2 and LX2 cells. In words: Cell confocal imaging, receptor binding of FITC labeled peptide (with AdipoR siRNA). Also noted: species or system human. The conditions noted are these: 37 °C, 2 or 4 h, AdipoR1/AdipoR2 siRNA as control, in words. As for the experimental part:
For in vitro receptor binding assay, 4E4 HepG2 cells or 2E4 LX2 cells were seeded on 35 mm glass bottom dish with 150 μL complete medium. Then cells were incubated with FITC labeled peptide for 4 h. The nuclei were stained with Hoechst 33342 (ThermoFisher, Scientific, USA). After washing with PBS, cells were visualized in a laser confocal microscope (Olympus FV3000, Japan). Cells with suppressed AdipoR1 and AdipoR2 expression with each specific siRNA were used as negative control.
(§1) AdipoR1 and AdipoR2 siRNA as well as mock siRNA were chemically synthesized (GenePharma, China) and transfected into 60–70% confluent HepG2 and LX2 cells using Lipofectamine 3000 (ThermoFisher Scientific, USA). Dilution of siRNA and Lipofectamine 3000 reagents as well as the transfection of cells were performed following the manufacturer’s protocol. For HepG2 cell model, 5E5 cells were plated in 6-well plates and transfected with 5 μL of 20 μM stock siRNA. At 48 h following transfection, the cells were processed for 0.25 mM PA and/or 200 μM JT003 treated for another 24 h. BSA was used as the negative control. For LX2 cell model, 2E5 cells were plated in 6-well plates and transfected with 5 μL of 20 μM stock siRNA. At 48 h following transfection, the cells were processed for JT003 or PBS treated for another 48 h. Next, cells were harvested for either western blot or qPCR assay.

For assay [3], the system named is CCl4 induced liver fibrosis mice. In words: CCl4 induced liver fibrosis mice: liver appearance, body weight, HE, Sirius red, IHC (αSMA, COL1α1, CD68). It counts as in vivo, mouse. The conditions noted are these: in words. As for the experimental part:
Male mice liver fibrosis was induced by intraperitoneal injection of 20% CCl4 (Sigma, USA) diluted in corn oil (Aladdin, China) every 3 days for 6 weeks (n = 6; 5 ml kg^−1 body weight). Mice injected with equivalent volume of corn oil serves as control group (n = 6). Liver fibrosis mice treated with JT003 for 3 weeks were used to evaluated the pharmacological effects (n = 6; 500 μg kg^−1; daily intraperitoneal injection).
The levels of TG and HYP in liver tissue were detected with certain commercial assay kit (Nanjing Jiancheng Bioengineering Institute, China). Formalin-fixed liver tissues were embedded in paraffin, sectioned into 5 μm slices. After deparaffinization and rehydration of the section slices, they were stained with Haematoxylin and Eosin or Periodic Acid-Schiff. For the detection of liver collagen content, Sirius Red staining for collagen was performed. OCT-embedded frozen liver tissues were sectioned into 12 μm slices, and Oil Red O staining was performed. The cryostat-cut slices were stained with freshly prepared Oil Red O working solution for 7 min Two independent experimenters who were blinded to the treatment evaluated the staining slides and analyzed the score for steatosis, glucogen accumulation and collagen proliferation area.
Paraffin-embedded liver slices were deparaffinized and rehydrated, antigen retrieval was performed under the high pressure and temperature in 0.01 M sodium citrate buffer (pH = 6.0). To quench the endogenous peroxidase activity, the slices were then incubated with 1% hydrogen peroxide in methanol for 10 min in room temperature. Then slices were incubated with corresponding primary antibodies. After washing, HRP-conjugated secondary antibodies specific to the species of the primary antibodies were used. After the section were developed with DAB, hematoxylin staining was performed for cell counting.

Assay [4] concerns AdipoR1 and AdipoR2 in HepG2 cells. As to the kind of experiment: RNA interference (AdipoR1/AdipoR2 siRNA) in PA induced HepG2: PPARα, PPARγ mRNA and protein. The class given is cell-based, human. The conditions noted are these: PA induced HepG2, 200 μM JT003; in words. As for the experimental part:
as §1, with “For LX2 cell model, 2E5 cells were plated in 6-well plates and transfected with 5 μL of 20 μM stock siRNA. At 48 h following transfection, the cells were processed for JT003 or PBS treated for another 48 h. Next, cells were harvested for either western blot or qPCR assay.” left out
Liver total RNA was extracted by using Trizol reagent following the manufacture’s instruction (TransGen Biotech, China). The concentration of RNA was measured by Nanodrop 2000 (ThermoFisher Scientific, USA). cDNA was transcribed from 10ug total RNA with First Strand cDNA synthesis Super Mix (TransGen Biotech, China). […] Reference gene β-actin was used for data normalization. mRNA expression was analyzed with specific primers listed in Supplementary Table 2.
Total protein was isolated from cells or liver samples using RIPA lysis buffer (50.0 mM Tris-HCl (pH = 8.0), 150.0 mM NaCl, 0.02% NaN3, 0.1% SDS, 1% NP-40, 0.5% deoxysodium cholate, 1 mM EDTA, […]). The protein concentration was quantified with BCA kit (Pierce, ThermoFisher Scientific, USA). […]

Take `CCC[C@H](NC(=O)[C@@H]1CCCN1)C(=O)N[C@@H](CC(C)C)C(=O)N[C@@H](Cc1ccc(O)cc1)C(=O)N[C@@H](Cc1ccc(O)cc1)C(=O)N[C@@H](Cc1ccccc1)C(=O)N[C@@H](C)C(N)=O` [JT003] (H-P[Nva]LYYFA-NH2): the “expression level of αSMA in LX2 cells” value in assay [1] is listed as “significantly decrease; also recorded: showed the best performance in inhibiting fibroblast formation”. Moreover, the “binding to AdipoRs on the cell membrane (confocal, FITC)” value in assay [2] is given as “could specifically bind to AdipoR1 and/or AdipoR2 on the cell membrane”. Besides, the “inflammation, necrosis and fibrosis area (HE and sirius red staining)” value in assay [3] (CCl4 induced liver fibrosis mice, administration dosages of 0.5 mg kg−1 and 2 mg kg−1) is “significantly decreased”. Moreover, in assay [3] (CCl4 induced liver fibrosis mice), the “liver adhesion (dissected assays)” value was “reduced”. Also, in assay [3] (CCl4 mice, JT003 500 μg kg−1), the “IHC staining of CD68 (macrophage infiltration)” value was “markedly reduced the inflammation”; the “immunohistochemical staining for αSMA and COL1α1” value is on record as “confirmed the improvement of liver fibrosis”. Further, the “effect of AdipoR1 and/or AdipoR2 siRNA on JT003 mediated PPARα and PPARγ expression” value in assay [4] was “blocked the JT003 effects on mediating PPARα and PPARγ expression”.
